Reference: ChEMBL document CHEMBL2303647, “Data associated with the publication PLoS ONE, 8(3), e57888, (2013) PMID: 23505445. Compounds: GSK PKIS; Assays: NIH NCATS”

Columns and labels:
[1] = target: Luciferin 4-monooxygenase (Photinus pyralis, UniProt P08659)
Description: GSK_PKIS: Inhibition of Firefly Luciferase (Data from PubChem: AID 652016) [NIH NCATS]

[2] = target: T1, Coelenterazine h 2-monooxygenase (Renilla reniformis, UniProt P27652)
T1 sequence (P27652 whole entry): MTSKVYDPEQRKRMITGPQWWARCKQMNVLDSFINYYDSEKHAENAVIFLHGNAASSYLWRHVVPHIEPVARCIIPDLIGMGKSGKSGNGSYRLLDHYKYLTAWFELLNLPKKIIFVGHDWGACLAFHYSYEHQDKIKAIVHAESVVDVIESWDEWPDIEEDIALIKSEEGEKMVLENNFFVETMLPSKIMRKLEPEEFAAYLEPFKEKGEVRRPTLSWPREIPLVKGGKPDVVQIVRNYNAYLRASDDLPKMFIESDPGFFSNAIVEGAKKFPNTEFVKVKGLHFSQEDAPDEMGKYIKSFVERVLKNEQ
Description: GSK_PKIS: Inhibition of Sea Pansy Luciferase (Data from PubChem: AID 652015) [NIH NCATS]

Chain of Luciferin 4-monooxygenase (P08659 whole entry): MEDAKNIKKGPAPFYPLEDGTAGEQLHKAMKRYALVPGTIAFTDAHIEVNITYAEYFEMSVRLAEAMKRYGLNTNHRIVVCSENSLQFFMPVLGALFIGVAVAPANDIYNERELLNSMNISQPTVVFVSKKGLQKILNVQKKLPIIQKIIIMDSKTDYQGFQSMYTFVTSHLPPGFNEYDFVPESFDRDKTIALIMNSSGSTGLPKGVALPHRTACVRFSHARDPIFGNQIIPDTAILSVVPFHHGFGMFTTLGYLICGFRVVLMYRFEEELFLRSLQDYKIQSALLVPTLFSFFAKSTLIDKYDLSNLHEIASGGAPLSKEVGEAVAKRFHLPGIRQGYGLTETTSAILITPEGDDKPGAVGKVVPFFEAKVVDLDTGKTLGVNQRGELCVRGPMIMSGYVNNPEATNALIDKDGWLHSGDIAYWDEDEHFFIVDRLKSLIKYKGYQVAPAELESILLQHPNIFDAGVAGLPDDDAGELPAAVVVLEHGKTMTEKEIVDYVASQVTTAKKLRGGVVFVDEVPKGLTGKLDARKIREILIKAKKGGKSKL

| AC50 ([1]; read-out: AC50) [µM] | SMILES | AC50 [1] | AC50 [2] |
| --- | --- | --- | --- |
|  | CCS(=O)(=O)c1ccc(OC)c(Nc2ncc(-c3cccc(C(C)=O)c3)o2)c1 [GW621431X] | Phenotype: Inactive; Curve_Description: None | Phenotype: Inactive; Curve_Description: None |
| 32.6 | FC(F)(F)c1cccc(-c2nn3ncccc3c2-c2ccnc(Nc3ccc4c(c3)OCCO4)n2)c1 [GW827102X] |  | Phenotype: Inactive; Curve_Description: None |
|  | COc1ccc(-c2nn3ncccc3c2-c2ccnc(Nc3ccc(Cl)c(C(F)(F)F)c3)n2)cc1 [GW829115X] | Phenotype: Inactive; Curve_Description: None | Phenotype: Activator; Curve_Description: None |
|  | Fc1cccc(COc2ccc(Nc3ncnc4sc(-c5ccco5)cc34)cc2Cl)c1 [GSK-969786A] | Phenotype: Inactive; Curve_Description: None | Phenotype: Inactive; Curve_Description: None |
| 29.1 | Cc1cc(O)cc(C)c1/C=C/c1cncc(-c2nn[nH]n2)c1.Cl [GW441806A] |  | Phenotype: Inactive; Curve_Description: None |
|  | Cc1ccc2c(c1)/C(=N/Nc1ccc(S(N)(=O)=O)cc1)C(=O)N2 [GW275944X] | Phenotype: Inactive; Curve_Description: None | Phenotype: Inactive; Curve_Description: None |
|  | CCc1nn2ncccc2c1-c1ccnc(NC2CC2)n1 [GW683768X] | Phenotype: Inactive; Curve_Description: None | Phenotype: Inactive; Curve_Description: None |
